Our source for the IC50 values is ChEMBL document CHEMBL5729461, “CDPK1 inhibitors, compositions, and methods related thereto” (2022).

This test deals with T1, Calmodulin-domain protein kinase 1 (Toxoplasma gondii, UniProt Q9BJF5).
T1 sequence (Q9BJF5 whole entry): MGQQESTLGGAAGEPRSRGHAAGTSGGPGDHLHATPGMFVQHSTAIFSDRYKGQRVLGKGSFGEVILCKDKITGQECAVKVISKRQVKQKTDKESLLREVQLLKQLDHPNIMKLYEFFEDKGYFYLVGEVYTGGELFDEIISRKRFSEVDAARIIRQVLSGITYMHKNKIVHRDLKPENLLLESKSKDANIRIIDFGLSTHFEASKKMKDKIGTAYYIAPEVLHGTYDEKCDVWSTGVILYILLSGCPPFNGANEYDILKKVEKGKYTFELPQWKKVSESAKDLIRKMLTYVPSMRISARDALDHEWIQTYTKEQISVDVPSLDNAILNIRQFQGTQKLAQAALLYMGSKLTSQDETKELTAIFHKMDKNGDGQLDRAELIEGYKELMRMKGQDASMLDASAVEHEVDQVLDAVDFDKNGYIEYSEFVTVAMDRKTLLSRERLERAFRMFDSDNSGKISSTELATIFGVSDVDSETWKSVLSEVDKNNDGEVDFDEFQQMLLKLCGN
Kind of test: Inhibition Assay: Certain of the compounds prepared as described above were assayed to determine their IC50 for inhibition of T. gondii CDPK1 (tgCDPK1). At least three independent replicates of the assay were conducted for each compound tested.
The IC50 is the concentration at which inhibition is half-maximal. Read a high IC50 as weaker potency in that assay. `Nc1ncnc2c1c(Cc1cccc(F)c1)nn2[C@H]1C[C@H](F)C1` yielded an IC50 of 14.2 nM. `Nc1ncnc2c1c(Cc1cccc(Cl)c1)nn2[C@H]1C[C@@H](F)C1` gave an IC50 of 7.05 nM. `Nc1ncnc2c1c(Cc1cccc(C(F)(F)F)c1)nn2[C@H]1C[C@H](O)C1` came in with an IC50 of 36 nM. Take `NC(=O)c1ccnc(Oc2nn([C@H]3C[C@H](F)C3)c3ncnc(N)c23)c1`: half-maximal inhibition (IC50) was put at 69.7 nM. The compound `COc1ccnc(Oc2nn([C@H]3C[C@@H](O)C3)c3ncnc(N)c23)c1` displayed an IC50 of 37.1 nM. As for `Nc1ncnc2c1c(Cc1cccc(Cl)c1)nn2[C@H]1C[C@H](O)C1`, the IC50 worked out at 8.87 nM. `N#Cc1cccc(Cc2nn([C@H]3C[C@H](F)C3)c3ncnc(N)c23)c1`: the IC50 amounted to 45.9 nM.

Take `Nc1ncnc2c1c(Cc1cccc(F)c1)nn2[C@H]1C[C@H](O)C1`: half-maximal inhibition (IC50) was put at 28.3 nM. The compound `Nc1ncnc2c1c(Cc1cccc(F)c1)cn2[C@H]1C[C@H](O)C1` yielded an IC50 of 28.3 nM.
